Assay results from US10160785B2, “Antimicrobial peptides and their use for the treatment of topical infections” (priority 2015, dated 2018).

Tests used:
in vitro = details: human
In short: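 Peptides at 2-200 μmol.l^−1 incubated 1 h at 37 °C with 5% v/v human erythrocyte suspension in physiological solution. Released haemoglobin in supernatant read at 540 nm against buffer (0%) and 0.2% Triton X100 (100%) lysis controls. LC50 is the peptide concentration lysing 50% of cells.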

[1] = system: Candida dubliniensis ATCC MYA-646; assay: microbe, parasite or virus in culture; format: cell-based; details: RPMI broth microdilution, 35° C., 48 hours, visual
Protocol: (§1) All yeasts Candida albicans (Olomouc) and ATCC MYA-2876, Candida glabrata ATCC 2001 and DSY 565, Candida dubliniensis ATCC MYA-646, Candida krusei ATCC 6258 and Candida tropicalis ATCC 750 were sub-cultured from sterile vials onto Sabouraud dextrose agar, which was composed of 40 g dextrose (Penta, Czech Republic), 10 g peptone (OXOID, Great Britain) and 17 g agar (OXOID), dissolved in 1 l of distilled water, and cultivated for 24 hours at 35° C.
(§2) All strains were stored in a way that minimizes the possibility of mutation. Candida spp. were grown overnight in liquid YPD medium which is composed of 10 g yeast extract (DIFCO, USA), 20 g peptone (OXOID), and 20 g dextrose (Penta) dissolved in 1 l distilled water. Then the overnight culture was cryogenically preserved by suspending in 50% glycerol solution (1:1) in small vials and stored at −80° C.
(§3) The inoculum was prepared by picking five colonies from 24-hour-old cultures of Candida spp. The colonies were suspended in 1 ml of sterile saline solution and vortexed for 15 seconds. Optical density of the suspension was adjusted spectrophotometrically by adding sterile saline solution to produce optical density of 0.18 at 600 nm. A working suspension was made by a 1:50 dilution followed by a 1:20 dilution of the stock suspension with RPMI 1640 broth medium which was composed of L-glutamine without NaHCO3 (BioSera, France), and with 0.165 mol.l^−1 MOPS (Duchefa, Netherland)—further as RPMI broth medium.
(§4) The broth microdilution test was performed by using sterile, disposable, multi-well microdilution plates (96-well). The peptides in the concentrations 0.625-160 μmol.l^−1 were pipetted into the wells in 100 μl volumes. Each well of the plate was inoculated with 100 μl of the diluted inoculum suspension. Final yeast density in each well was 5×10^2 up to 2.5×10^3 CFU/ml. The microdilution plates were incubated without shaking at 35° C. and observed for the presence or absence of visible growth for 48 hours.
(§5) Drug-free medium without inoculation served as negative control; the growth positive control contained inoculated drug-free medium. Amphotericin B was used as control drug to ensure quality of Candida strains.
(§6) The minimal inhibition concentrations (MICs) were visually determined 48 hours after inoculation. The MIC values were defined as the lowest concentration in which no observable growth is noticeable.
(§7) All yeast isolates were obtained from the Institute of Physiology of the Academy of Sciences of the Czech Republic. Candida albicans (Olomouc) came from the Faculty of Medicine and Dentistry, Palacý University Olomouc.

[2] = system: Candida albicans (Olomouc); assay: microbe, parasite or virus in culture; format: cell-based; details: RPMI broth microdilution, 35° C., 48 hours, visual
Protocol: as §1, §2, §3, §4, §5, §6, §7

Candida krusei ATCC 6258 = assay: microbe, parasite or virus in culture; format: cell-based; details: RPMI broth microdilution, 35° C., 48 hours, visual
Protocol: as §1, §2, §3, §4, §5, §6, §7

[3] = system: Candida albicans ATCC MYA-2876; assay: microbe, parasite or virus in culture; format: cell-based; details: RPMI broth microdilution, 35° C., 48 hours, visual
Protocol: as §1, §2, §3, §4, §5, §6, §7

[4] = system: Candida tropicalis ATCC 750; assay: microbe, parasite or virus in culture; format: cell-based; details: RPMI broth microdilution, 35° C., 48 hours, visual
Protocol: as §1, §2, §3, §4, §5, §6, §7

[5] = system: Candida glabrata ATCC 2001; assay: microbe, parasite or virus in culture; format: cell-based; details: RPMI broth microdilution, 35° C., 48 hours, visual
Protocol: as §1, §2, §3, §4, §5, §6, §7

Candida glabrata DSY 565 = assay: microbe, parasite or virus in culture; format: cell-based; details: RPMI broth microdilution, 35° C., 48 hours, visual
Protocol: as §1, §2, §3, §4, §5, §6, §7

[6] = system: Methicillin resistant Staphylococcus aureus (MRSA) 6271; details: 37° C., 20 h
Protocol: (§8) Gram-positive bacteria (Micrococcus luteus, Bacillus subtilis, Staphylococcus aureus, Staphylococcus epidermidis and Enterococcus faecalis), Gram-negative bacteria (Escherichia coli and Pseudomonas aeruginosa) and the yeast (Candida albicans) were grown to exponential phase and then were diluted with fresh medium. BHI medium (Oxoid, Great Britain) was used for Enterococcus faecalis; YPD medium containing yeast extract peptone and glucose was used for Candida albicans and LB medium (Sigma, Czech Republic) was used for the remaining microorganisms. Then the microorganisms were added to the solutions of the tested antimicrobial peptides in LB medium in multi-well plates. The final peptide concentration it the wells was in the range of 0.1 to 100 μmol.l^−1. That was made by twofold serial dilution from the peptide stock solution (1 mmol.l^−1). The plates were incubated at 37° C. for 20 h while being continuously shaken in a Bioscreen C (Oy Growth Curves AB Ltd., Helsinki, Finland). Absorbance was measured at 540 nm every 15 min. Antimicrobial activity (Table 2) was determined as a quantitative minimum inhibitory concentration (MIC) by observing bacterial growth in the presence of different concentrations of tested peptides. In the experiments ca 10^5 CFU of bacteria or candida per well were routinely used.
(§9) Multiresistant clinical isolates of bacteria were obtained from University Hospital in Motol, Prague, Czech Republic and from Liberec Regional Hospital, Czech Republic. Methicillin resistant Staphylococcus aureus (MRSA) 6271 and Pseudomonas aeruginosa 5482 were from the Czech National Collection of Type Cultures, the National Institute of Public Health, Prague, Czech Republic. Other bacteria were from the Czech Collection of Microorganisms, Brno, Czech Republic. Candida albicans came from the Faculty of Medicine, Palacky University, Olomouc, Czech Republic.

Escherichia coli = details: 37° C., 20 h
Protocol: as §8, §9

[7] = system: Enterococcus faecalis Motol; details: BHI medium, 37° C., 20 h
Protocol: as §8, §9

[8] = system: Pseudomonas aeruginosa 5482; details: 37° C., 20 h
Protocol: as §8, §9

[9] = system: Staphylococcus aureus Liberec; details: Staphylococcus aureus Liberec clinical isolate; 37° C., 20 h
Protocol: as §8, §9

[10] = system: Staphylococcus epidermidis Motol; details: 37° C., 20 h
Protocol: as §8, §9

Candida albicans Olomouc = details: Candida albicans Olomouc; YPD medium; 37° C., 20 h (Example 2)
Protocol: as §8, §9

[11] = system: Pseudomonas aeruginosa Liberec; details: Pseudomonas aeruginosa Liberec; 37° C., 20 h
Protocol: as §8, §9

[12] = system: Staphylococcus aureus Motol; details: Staphylococcus aureus Motol clinical isolate; 37° C., 20 h
Protocol: as §8, §9

Micrococcus luteus = details: Micrococcus luteus; 37° C., 20 h
Protocol: as §8, §9

Bacillus subtilis = details: Bacillus subtilis; 37° C., 20 h
Protocol: as §8, §9

P. aeruginosa (Liberec) = assay: Synergistic effect of peptides with antibiotics, FIC index; format: cell-based, Pseudomonas aeruginosa; details: FIC <0.5 synergism, 0.5-2 additive, >2 antagonism, averages of three experiments; for FIC indexes (fractional inhibitory concentration) Combination with RIF against P. aeruginosa: peptide combined with rifampicin; for FIC indexes (fractional inhibitory concentration) Combination with TET against P. aeruginosa: peptide combined with tetracycline
Protocol: (§10) MICs values of various combinations of two fold serial dilutions of peptides and antibiotics were determined using the same methodology as in the case of antimicrobial activity determination (Example 2). To consider the type of the final effect, FIC indexes (fractional inhibitory concentration) were used and calculated as follows:
(§11) [formula] where MICPC and MICAC are the MICs of the peptide and antibiotic in combination, respectively, and MICP and MICA are the MICs of the peptide and antibiotic tested alone, respectively. FIC<0.5 were considered as synergy, 0.5≤FIC≤2 as addition effect, and FIC>2 as antagonism.

S. aureus (Liberec) = assay: as above; format: cell-based, Staphylococcus aureus; details: peptide combined with amoxicillin; FIC <0.5 synergism, 0.5-2 additive, >2 antagonism; averages of three experiments
Protocol: as §10, §11

Substance | HC50 at 1 h (in vitro) [µM] | Antifungal activity MIC C. dubliniensis ATCC MYA-646 [1] [µM] | Antifungal activity MIC C. albicans Olomouc [2] [µM] | Antifungal activity MIC C. krusei ATCC 6258 (Candida krusei ATCC 6258) [µM] | Antifungal activity MIC C. albicans ATCC MYA-2876 [3] [µM] | Antifungal activity MIC C. tropicalis ATCC 750 [4] [µM] | Antifungal activity MIC C. glabrata ATCC 2001 [5] [µM] | Antifungal activity MIC C. glabrata DSY 565 (Candida glabrata DSY 565) [µM] | Antimicrobial activity MIC S. a. 6271 [6] [µM] | Antimicrobial activity MIC E. c. (Escherichia coli) [µM] | Antimicrobial activity MIC E. f. Motol [7] [µM] | Antimicrobial activity MIC P. a. 5482 [8] [µM] | Antimicrobial activity MIC S. a. Liberec [9] [µM] | Antimicrobial activity MIC S. e. Motol [10] [µM] | Antimicrobial activity MIC C. a. Olomouc (Candida albicans Olomouc) [µM] | Antimicrobial activity MIC P. a. Liberec [11] [µM] | Antimicrobial activity MIC S. a. Motol [12] [µM] | Antimicrobial activity MIC M. l. (Micrococcus luteus) [µM] | Antimicrobial activity MIC B. s. (Bacillus subtilis) [µM] | FIC indexes (fractional inhibitory concentration) Combination with RIF against P. aeruginosa (P. aeruginosa (Liberec)) | further results
H-GILSSLLKKWKKIIAK-NH2 [XVI] | > 400 | 40.0 | 18.0 | 10.0 | 26.0 | 1.0 | 40.0 | 231.1 | 20.0 | 7.5 | 100.0 | 5.0 | 8.8 | 2.7 | 10.5 | 7.1 | 20.3 | 2.0 | 1.6 | 0.417 | FIC indexes (fractional inhibitory concentration) Combination with TET against P. aeruginosa (P. aeruginosa (Liberec)): 0.583
H-GILSSWLKKLKKIIAK-NH2 [XV] | > 400 | 22.0 | 21.0 | 8.0 | 17.0 | 1.2 | 40.0 | 88.9 | 16.0 | 11.0 | 73.3 | 4.0 | 6.6 | 2.0 | 16.7 | 5.9 | 16.2 | 1.6 | 1.6 | 0.396 | FIC indexes (fractional inhibitory concentration) Combination with TET against P. aeruginosa (P. aeruginosa (Liberec)): 0.646; FIC indexes (fractional inhibitory concentration) Combination with AMX against S. aureus (S. aureus (Liberec)): 0.375
